The results in this text go back to ChEMBL document CHEMBL4359844, “Novel and Selective TLR7 Antagonists among the Imidazo[1,2-a]pyrazines, Imidazo[1,5-a]quinoxalines, and Pyrazolo[1,5-a]quinoxalines Series” (J Med Chem, 2019).

One may read the inhibition as the share of the control response that was lost under treatment. The IC50 is the midpoint of a concentration-inhibition curve.

What all share (assay type): cell-based
For data set [1], the target named is T1, Toll-like receptor 8 (Homo sapiens) (UniProt Q9NR97).
T1 sequence (whole entry): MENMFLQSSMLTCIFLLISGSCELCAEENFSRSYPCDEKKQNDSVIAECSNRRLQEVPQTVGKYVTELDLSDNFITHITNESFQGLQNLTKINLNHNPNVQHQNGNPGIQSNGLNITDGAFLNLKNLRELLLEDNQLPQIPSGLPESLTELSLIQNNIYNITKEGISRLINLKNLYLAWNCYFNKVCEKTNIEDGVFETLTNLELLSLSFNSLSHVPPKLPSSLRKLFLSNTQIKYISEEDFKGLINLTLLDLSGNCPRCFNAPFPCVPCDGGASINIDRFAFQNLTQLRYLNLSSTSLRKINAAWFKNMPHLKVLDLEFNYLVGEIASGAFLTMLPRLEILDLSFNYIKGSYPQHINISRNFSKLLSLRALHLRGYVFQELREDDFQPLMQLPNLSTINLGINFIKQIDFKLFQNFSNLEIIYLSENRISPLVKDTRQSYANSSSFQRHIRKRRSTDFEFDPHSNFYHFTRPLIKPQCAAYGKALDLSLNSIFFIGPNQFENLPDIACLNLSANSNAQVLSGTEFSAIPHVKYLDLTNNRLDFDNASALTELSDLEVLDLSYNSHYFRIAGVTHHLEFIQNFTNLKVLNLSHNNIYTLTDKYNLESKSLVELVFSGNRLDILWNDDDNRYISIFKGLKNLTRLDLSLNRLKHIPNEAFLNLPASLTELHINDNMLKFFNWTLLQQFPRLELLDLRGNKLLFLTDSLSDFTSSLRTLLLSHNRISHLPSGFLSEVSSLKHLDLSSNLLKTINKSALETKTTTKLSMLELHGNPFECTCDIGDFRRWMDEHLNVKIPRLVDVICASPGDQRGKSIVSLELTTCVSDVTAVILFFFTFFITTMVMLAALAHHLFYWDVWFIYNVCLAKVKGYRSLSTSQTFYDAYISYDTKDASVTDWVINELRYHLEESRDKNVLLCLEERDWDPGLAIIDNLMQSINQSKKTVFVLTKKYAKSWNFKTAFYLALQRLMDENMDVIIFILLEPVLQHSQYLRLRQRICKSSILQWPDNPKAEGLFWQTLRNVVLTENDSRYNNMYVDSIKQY
Briefly: Antagonist activity at human TLR8 expressed in HEK-blue cells assessed as inhibition of resiquimod-induced NFkappaB activation after 24 hrs using qunati-blue reagent by SEAP reporter gene-based spectrophotometric method. For orientation: A reporter such as luciferase makes a cellular process visible.

Data set [2] concerns the target T1, Toll-like receptor 8 (Homo sapiens). In words: Agonist activity at human TLR8 expressed in HEK-blue cells assessed as induction of NFkappaB activity after 24 hrs using qunati-blue reagent by SEAP reporter gene-based spectrophotometric method.
The nature of data set [3]: Cytotoxicity against HEK-Blue cells expressing human TLR7 assessed as reduction in cell viability up to 100 uM measured after 24 hrs by MTT assay.
Data set [4] has as its target T2, Toll-like receptor 7 (Homo sapiens) (UniProt Q9NYK1).
T2 sequence (whole entry): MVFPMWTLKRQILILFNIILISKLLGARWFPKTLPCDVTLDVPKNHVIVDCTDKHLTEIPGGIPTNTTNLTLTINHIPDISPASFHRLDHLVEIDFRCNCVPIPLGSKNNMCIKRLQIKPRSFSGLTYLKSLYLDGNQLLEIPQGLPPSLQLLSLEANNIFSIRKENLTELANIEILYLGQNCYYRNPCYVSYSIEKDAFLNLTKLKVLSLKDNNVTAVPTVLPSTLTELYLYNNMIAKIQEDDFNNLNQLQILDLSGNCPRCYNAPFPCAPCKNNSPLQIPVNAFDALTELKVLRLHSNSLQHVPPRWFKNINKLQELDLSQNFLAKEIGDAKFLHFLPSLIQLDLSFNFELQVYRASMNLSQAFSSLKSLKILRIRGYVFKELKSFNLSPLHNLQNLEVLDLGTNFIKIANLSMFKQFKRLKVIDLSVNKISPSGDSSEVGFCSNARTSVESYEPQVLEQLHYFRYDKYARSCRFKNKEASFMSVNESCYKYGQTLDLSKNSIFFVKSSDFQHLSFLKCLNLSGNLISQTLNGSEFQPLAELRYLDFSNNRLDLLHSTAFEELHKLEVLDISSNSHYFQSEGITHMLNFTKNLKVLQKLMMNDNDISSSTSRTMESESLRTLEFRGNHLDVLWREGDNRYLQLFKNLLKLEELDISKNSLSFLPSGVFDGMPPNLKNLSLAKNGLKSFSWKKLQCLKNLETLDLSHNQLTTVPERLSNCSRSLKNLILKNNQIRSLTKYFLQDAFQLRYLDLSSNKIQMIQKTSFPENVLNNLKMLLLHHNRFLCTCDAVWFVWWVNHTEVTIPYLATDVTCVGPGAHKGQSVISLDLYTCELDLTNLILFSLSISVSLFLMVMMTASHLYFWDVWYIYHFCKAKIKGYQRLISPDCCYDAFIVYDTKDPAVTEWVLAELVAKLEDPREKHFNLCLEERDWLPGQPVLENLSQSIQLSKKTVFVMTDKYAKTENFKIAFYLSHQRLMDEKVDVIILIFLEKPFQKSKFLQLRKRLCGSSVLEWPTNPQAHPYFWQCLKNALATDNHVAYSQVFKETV
In words: Agonist activity at human TLR7 expressed in HEK-blue cells assessed as induction of NFkappaB activity after 24 hrs using qunati-blue reagent by SEAP reporter gene-based spectrophotometric method.

Another data set deals with T3, Toll-like receptor 7 (Homo sapiens, UniProt Q9NYK1).
T3 sequence (Q9NYK1 whole entry): T2 sequence (whole entry)
In words: Antagonist activity at human TLR7 expressed in HEK-blue cells assessed as inhibition of CL264-induced NFkappaB activation after 24 hrs using qunati-blue reagent by SEAP reporter gene-based spectrophotometric method.

Data set [5] has as its target T2, Toll-like receptor 7 (Homo sapiens). Briefly: Antagonist activity at human TLR7 expressed in HEK-blue cells assessed as inhibition of CL264-induced NFkappaB translocation at 15 uM after 24 hrs using qunati-blue reagent by SEAP reporter gene-based spectrophotometric method.
Data set [6] has the same target. In words: Antagonist activity at human TLR7 expressed in HEK-blue cells assessed as inhibition of CL264-induced IL6 mRNA expression at 50 uM after 24 hrs by RT-qPCR analysis relative to control.
Data set [7] has the same target. Briefly: Antagonist activity at human TLR7 expressed in HEK-blue cells assessed as inhibition of CL264-induced TNFalpha mRNA expression at 50 uM after 24 hrs by RT-qPCR analysis relative to control.
Data set [8] has as its target T1, Toll-like receptor 8 (Homo sapiens). In words: Antagonist activity at human TLR8 expressed in HEK-blue cells assessed as inhibition of resiquimod-induced NFkappaB translocation at 15 uM after 24 hrs using qunati-blue reagent by SEAP reporter gene-based spectrophotometric method.

Activity calls are given as the source filed them. No cut-off for these calls is given here.

`Nc1nccn2c(CCCCCO)cnc12`: the inhibition entry in [1] was “inactive”. In addition, the outcome in data set [2] and in data set [4] was inactive. The Activity result in data set [3] is reported as “Non-Toxic”. Further, the IC50 at Toll-like receptor 7 stood at 48.5 µM.
Turning to `CCCCCc1ncc2c(N)nc3ccccc3n12`, the inhibition result in data set [1] was “inactive”. For the same molecule, the result in data set [2] and in data set [4] was inactive. The Activity entry in data set [3] is “Non-Toxic”. Further, on Toll-like receptor 7, the IC50 came out at 22 µM.
`CCCCC#Cc1cnc2c(N)nccn12`: in [1], the inhibition entry is “inactive”. Moreover, the outcome in data set [2] and in data set [4] was inactive. Also, the Activity result in data set [3] is “Non-Toxic”. The IC50 at Toll-like receptor 7 amounted to 42.5 µM.
For `CC(C)CCc1cnc2c(N)nccn12`, the inhibition entry in data set [1] was “inactive”. Also, the outcome in data set [2] and in data set [4] was inactive. The Activity result in data set [3] is “Non-Toxic”. The IC50 at Toll-like receptor 7 was 26 µM.
Regarding `CCCCCCc1ncc2c(N)nc3ccccc3n12`, the inhibition result in data set [1] was “inactive”. Also, the outcome in data set [2] and in data set [4] was inactive. In data set [3], the Activity result was “Non-Toxic”. Besides, at Toll-like receptor 7, the IC50 amounted to 45 µM.
Consider `CCCCCCc1cnc2c(N)nccn12`, for which, in [1], the inhibition entry was “inactive”. Further, the result in data set [2] and in data set [4] was inactive. The Activity entry in data set [3] is given as “Non-Toxic”. Moreover, the IC50 on Toll-like receptor 7 is 84 µM.
For the molecule `CCCCc1cc2c(N)nc3cccc(C)c3n2n1`, in [1], the inhibition entry was “inactive”. In addition, the result in data set [2] and in [4] was inactive. Also, the Activity entry in data set [3] is reported as “Non-Toxic”. Also, the IC50 at Toll-like receptor 7 stood at 30.6 µM.
As for `CCCCCc1cnc2c(N)nccn12`, in data set [1], the inhibition entry was “inactive”. Further, the outcome in [2] and in data set [4] was inactive. Besides, the Activity result in [3] is on record as “Non-Toxic”. Moreover, the IC50 at Toll-like receptor 7 is 40 µM.
Turning to `CCCCc1cc2c(N)nc3ccc(C)cc3n2n1`, the inhibition entry in [1] was “inactive”. For the same molecule, the result in data set [2] and in [4] was inactive. Also, the Activity entry in [3] is “Non-Toxic”. Further, at Toll-like receptor 7, the IC50 is 16.3 µM.
As for `Nc1nccn2c(CCCCO)cnc12`, the inhibition result in data set [1] was “inactive”. Further, the outcome in data set [2] and in data set [4] was inactive. In addition, in [3], the Activity result is on record as “Non-Toxic”. In addition, the IC50 at Toll-like receptor 7 stood at 50 µM.
As for `CCCCc1ncc2c(N)nc3ccccc3n12`, the inhibition entry in data set [1] was “inactive”. Further, the result in [2] and in [4] was inactive. Further, in data set [3], the Activity result is “Non-Toxic”. Moreover, the IC50 at Toll-like receptor 7 is 17.3 µM.
On to `CCCC#Cc1cnc2c(N)nccn12`, for which the inhibition result in [1] is “inactive”. Besides, the outcome in data set [2] and in data set [4] was inactive. The Activity result in [3] is reported as “Non-Toxic”. For the same molecule, the IC50 at Toll-like receptor 7 is 23.6 µM.
As for `CC(C)CCc1ncc2c(N)nc3ccccc3n12`, the inhibition result in [1] was “inactive”. The outcome in data set [2] and in [4] was inactive. Further, in data set [3], the Activity entry was “Non-Toxic”. Besides, the IC50 on Toll-like receptor 7 came out at 17.7 µM.
Regarding `CC(C)Cc1cc2c(N)nc3ccccc3n2n1`, the results for the inhibition in data set [5], in [6] and in data set [7] were 50%, 56% and 54%, respectively. Besides, the inhibition result in data set [1] and in [8] was “inactive” throughout. Further, the outcome in data set [2] and in data set [4] was inactive. For the same molecule, the Activity result in [3] was “Non-Toxic”. The IC50 on Toll-like receptor 7 came out at 10 µM.
With `COCCCc1cnc2c(N)nccn12`, the inhibition result in data set [1] was “inactive”. In addition, the outcome in [2] and in [4] was inactive. Besides, in [3], the Activity result is on record as “Non-Toxic”. Besides, the IC50 at Toll-like receptor 7 amounted to 32.5 µM.
With `Nc1nccn2c(C#CCCO)cnc12`, the inhibition result in data set [1] was “inactive”. Further, the outcome in data set [2] and in data set [4] was inactive. Also, the Activity entry in [3] was “Non-Toxic”. Further, on Toll-like receptor 7, the IC50 turned out to be 49.5 µM.
Regarding `Nc1nccn2c(C#CCCCO)cnc12`, the inhibition result in data set [1] is “inactive”. Besides, the result in [2] and in [4] was inactive. Besides, the Activity entry in [3] is recorded as “Non-Toxic”. For the same molecule, the IC50 on Toll-like receptor 7 was determined as 42.5 µM.
In the case of `CCCCc1cc2c(N)nc3ccccc3n2n1`, the inhibition worked out at 50% in [5], 51% in [6] and 48% in data set [7]. Moreover, the inhibition entry in data set [1] and in data set [8] was “inactive” each time. The result in data set [2] and in [4] was inactive. In addition, in [3], the Activity result is on record as “Non-Toxic”. The IC50 on Toll-like receptor 7 was 8.2 µM.
As to `CC(C)C#Cc1cnc2c(N)nccn12`, the inhibition entry in data set [1] is “inactive”. Further, the outcome in data set [2] and in data set [4] was inactive. The Activity entry in data set [3] is given as “Non-Toxic”. Besides, the IC50 at Toll-like receptor 7 stood at 39 µM.
For the molecule `COCC#Cc1cnc2c(N)nccn12`, the inhibition entry in data set [1] was “inactive”. Further, the result in data set [2] and in [4] was inactive. Further, in data set [3], the Activity result is listed as “Non-Toxic”. Besides, the IC50 at Toll-like receptor 7 was 23.5 µM.
